Test results taken from paper PMC4149317 (Acta biomaterialia, 2013).
One block for each substance: values may come before it.

Tests used:
endothelial cells = settings: VEGF supplement to endothelial cells; ref [30]; cited from earlier work
VEGF (rhVEGF165) [1] = biological target: T1, VEGF (rhVEGF165) (Homo sapiens, UniProt P15692); assay: Heparin modulation of VEGF binding to microspheres
T1 sequence (P15692 1-191 isoform P15692-4): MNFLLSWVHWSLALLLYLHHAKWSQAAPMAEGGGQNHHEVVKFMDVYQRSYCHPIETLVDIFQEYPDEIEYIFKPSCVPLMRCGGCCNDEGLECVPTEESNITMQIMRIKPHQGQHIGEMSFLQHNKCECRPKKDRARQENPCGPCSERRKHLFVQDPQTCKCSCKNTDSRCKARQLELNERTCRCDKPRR

VEGF (rhVEGF165) [2] = biological target: T1, VEGF (rhVEGF165); assay: VEGF binding to PEG microspheres in serum-containing and albumin-only solutions; settings: 0.4% peptide density, albumin-only solution (1.25 wt.% BSA in PBS); p < 0.05 (Fig. 2D)
[3] = ref [27], cited from earlier work
VEGF = settings: soluble VBP vs soluble VBPWT; ref [27]; cited from earlier work

Substance: VEGF
Endothelial proliferation below 1 ng ml^−1 VEGF (endothelial cells): proliferation is decreased at VEGF concentrations below 1 ng ml^−1 | VEGF concentration of maximal endothelial proliferation (endothelial cells): 1 to 1.2 ng/mL

Effect of soluble heparin on specificity of VEGF binding (VEGF (rhVEGF165) [1]; 10 µg ml^−1 UFH in albumin-containing solution, 1.6% peptide density (Fig. 3C)): reduced non-specific binding of VEGF | Effect of soluble heparin on VEGF binding affinity (VEGF (rhVEGF165) [1]; physiologic level of soluble heparin, UFH 10 µg ml^−1): increased VEGF binding affinity
Substance: heparin

KD, VBP-VEGF vs VBPWT-VEGF, albumin-only solution (VEGF (rhVEGF165) [2]): exhibited a lower KD than VBPWT-VEGF
Substance: CEFdAdYdLdIDFNWEYPASK [VBP]
Stability against protease-mediated degradation ([3]; four D-substituted amino acids vs wild-type): enhanced peptide stability against protease-mediated degradation | Serum stability of soluble peptide ([3]; soluble VBP vs soluble VBPWT): higher than that of soluble VBPWT | VEGF binding affinity of soluble peptide (VEGF): higher than that of soluble VBPWT
